Source: BindingDB's records for doi:10.1016/j.bmc.2015.09.025 (Sookmyung Women'S University, 2015)

assay: Antiosteoclast activity in mouse BMM cells assessed as reduction of RANKL-induced osteoclasts differentiation by measuring TRAP positive multinucleated cells after 4 days by light microscopy

Structure (SMILES) | IC50 [nM]
CCc1ccc(Nc2nc3cc(NC(=O)CCCCOc4ccc(/C(N)=N/O)cc4)ccc3o2)cc1 | 1310
N/C(=N\O)c1ccc(OCCCCC(=O)Nc2ccc3oc(Nc4ccccc4)nc3c2)cc1 | 560
COc1ccc(Nc2nc3cc(NC(=O)CCCCOc4ccc(/C(N)=N/O)cc4)ccc3o2)cc1 | 580
CC(c1cc2ccccc2s1)N(O)C(N)=O (racemic) [Leutrol] | > 20000
